Where two headings read alike, the source gives them in different places.
How the values were obtained:
[1] = biological target: Human DNA topoisomerase II; experiment: DNA topoisomerase II assay (P4 unknotting reaction); type: biochemical; settings: read-out: Inhibition of DNA Topoisomerase II Activity ID50
Procedure: (§1) The compounds of the present invention were tested for their degree of inhibitory activity on human type II DNA topoisomerase, their effect on the formation of protein-linked DNA breakage, and their cytotoxicity. […] For a description of the assays used with respect to the compounds listed in Tables 1 to 5 see Thurston, L.S., Irie, H., Tani, S., Han, F. S., Liu, Z. C., Cheng, Y.C., and Lee, K. H., Antitumor Agents 78. Inhibition of Human DNA Topoisomerase II by Podophyllotoxin and Peltatin Analogues, J. Med. Chem. 29, 1547 (1986), and the references cited therein, herein incorporated by reference.
Human DNA topoisomerase II was isolated from peripheral blast cells of a patient with acute leukemia. The isolation procedure is described in Thurston, L., Imakura, Y., Haruna, M., Li, Z. C., Liu, S. Y., and Lee, K. H., J. Med. Chem., 31, […] (1988) and is a partial combination of the procedure described in Goto, T., Laiapia, P. and Wang, J., J. Biol. Chem., 259, 10422 (1984) and Halligan, B., Edwards, K., and Liu, L., J. Biol. Chem., 260, 2475 (1985) which are herein specifically incorporated by reference.
Drugs were dissolved in Me2 SO at a concentration of 20 mM as the stock solution and diluted before use with water to the desired concentration of each drug.
The P4 unknotting reaction was a modification of the procedure described by Hseih, T., J. Biol. Chem., 258, 8413 (1985), which is herein specifically incorporated by reference.
The reaction mixture (20 μL), which contained 50 mM HEPES, pH 7.0, 50 mM KCI, 100 mM NaCl, 0.1 mM EDTA, 10 mM MgCl2, 1.0 mM ATP, 50 μg/mL bovine serum albumin, 0.4 μg P4knotted DNA, and enzyme, was incubated with or without drugs.
The reaction mixture was incubated at 37° C. for 30 min and terminated by adding 5.0 μl of a stop solution (2% sodium dodecyl sulfate, 20% glycerol, 0.05% bromophenol blue). These samples were loaded onto a 1% agarose gel and electrophoresed at 55 V overnight with an electrophoresis buffer that contained 90 mM Tris-boric acid, pH 8.3, and 2.5 mM EDTA. At completion, the gel was stained in 0.5 μg/mL of ethidium bromide. Then a photograph was taken of the DNA bands visualized with fluorescence induced by a long-wavelength UV lamp. […]

KB cells = experiment: Cytotoxicity: 50% reduction in cell number of KB cells after three day incubation; type: cell-based; settings: Homo sapiens, 72 h, read-out: Cytotoxicity ID50 KB
Procedure: as §1, with “cytotoxicity. The inhibitory activity for compounds of the present invention correlated with the ability of the compounds to cause DNA strand breakage.” for “cytotoxicity.”
in cell number after three day incubation.

[2] = Table 5, based on degree of inhibition at 10, 25, 50 and 100 μM
[3] = Table 3, based on degree of inhibition at 20, 25, 50 and 100 μM
[4] = Table 3, KB cells, three day incubation
[5] = Table 4, based on degree of inhibition at 10, 25, 50 and 100 μM
[6] = Table 4, KB cells, three day incubation
[7] = Table 1, based on degree of inhibition at 25, 50, and 100 μM
[8] = Table 1, KB cells, three day incubation
[9] = Table 2, based on degree of inhibition at 10, 25, 50 and 100 μM
[10] = Table 2, KB cells, three day incubation

Question: For `COC1=CC([C@@H]2c3cc4c(cc3[C@@H](Nc3ccc(F)cc3)[C@H]3COC(=O)[C@@H]32)OCO4)=CC(=O)C1=O` [Example 43, 3',4'-Didemethoxy-3',4'-dioxo-4β-(4"-fluoroanilino)-4-desoxypodophyllotoxin], which IC50 [1, 2] is on record?
Answer: 25 µM

Question: And the IC50 (KB cells; Table 5, KB cells, three day incubation)?
Answer: > 2.1 µM

Question: How did the IC50 [1, 3] turn out when `COc1cc2c(cc1OC)[C@@H](Nc1ccc(C#N)cc1)[C@H]1COC(=O)[C@@H]1[C@@H]2c1cc(OC)c(O)c(OC)c1` [Example 32, 6,7-O-demethylene-6,7-O-dimethyl-4'-O-demethyl-4β-(4"-cyanoanilino)-4-desoxypodophyllotoxin] was run?
Answer: 50 µM

Question: And the IC50 (KB cells; [4])?
Answer: < 0.4 µM

Question: Which IC50 [1, 3] does the source give for `CCOC(=O)c1ccc(N[C@@H]2c3cc(O)c(O)cc3[C@@H](c3cc(OC)c(O)c(OC)c3)[C@H]3C(=O)OC[C@@H]32)cc1` [Example 28, 6,7-O-Demethylene-4'-O-demethyl-4β-[4"-(ethoxycarbonyl)anilino]-4-desoxypodophyllotoxin] here?
Answer: 20 µM

Question: And the IC50 (KB cells; [4])?
Answer: 0.78 µM

Question: What does the source list for `COc1cc([C@@H]2c3cc(O)c(O)cc3[C@@H](Nc3ccc(F)cc3)[C@H]3COC(=O)[C@H]23)cc(OC)c1O` [Example 30, 6,7-O-Demethylene-4'-O-demethyl-4β-(fluoroanilino)-4-desoxypodophyllotoxin]?
Answer: IC50 [1, 3]: 25 µM; IC50 (KB cells; [4]): > 1 µM

Question: `COc1cc([C@@H]2c3cc4c(cc3[C@@H](NC(=O)c3ccc(OC(C)=O)cc3)[C@H]3COC(=O)[C@H]23)OCO4)cc(OC)c1O` [Example 37, 4'-O-Demethyl-4β-[(4-acetoxybenoyl)amino]-4-desoxypodophyllotoxin] was tested. Which IC50 [1, 5] did it give?
Answer: 25 µM

Question: What about the IC50 (KB cells; [6]) of the same compound?
Answer: 0.61 µM

Question: Which IC50 [1, 5] does the source give for `COc1cc([C@@H]2c3cc4c(cc3[C@@H](NC(=O)c3cccc(C#N)c3)[C@H]3COC(=O)[C@H]23)OCO4)cc(OC)c1O` [Example 39, 4'-O-Demethyl-4β-[(3"-cyanobenzoyl)amino]-4-desoxypodophyllotoxin] here?
Answer: 50 µM

Question: And the IC50 (KB cells; [6])?
Answer: 1 µM

Question: Which results are given for `COc1cc([C@@H]2c3cc4c(cc3[C@@H](NC(=O)c3ccc(C(C)=O)cc3)[C@H]3COC(=O)[C@H]23)OCO4)cc(OC)c1O` [Example 38]?
Answer: IC50 [1, 5]: 50 µM; IC50 (KB cells; [6]): 1 µM

Question: `COc1cc([C@@H]2c3cc(O)c(O)cc3[C@@H](Nc3ccc([N+](=O)[O-])cc3)[C@H]3COC(=O)[C@H]23)cc(OC)c1O` [Example 27, 6,7-O-Demethylene-4'-O-demethyl-4β-(4"-nitroanilino)-4-desoxypodophyllotoxin] was tested. Which IC50 [1, 3] did it give?
Answer: 20 µM

Question: What about the IC50 (KB cells; [4]) of the same compound?
Answer: 0.76 µM

Question: For `COc1cc(C2c3cc4c(cc3C(NCc3ccccc3[N+](=O)[O-])C3COC(=O)C23)OCO4)cc(OC)c1O` (stereo not drawn) [Example 6, 4'-O-Demethyl-4β-(2"-nitrobenzylamino)-4-desoxypodophyllotoxin], which IC50 [1, 7] is on record?
Answer: 50 µM

Question: And the IC50 (KB cells; [8])?
Answer: 1.8 µM

Question: What does the source list for `CCOC(=O)c1ccc(N[C@@H]2c3cc(OC)c(OC)cc3[C@@H](c3cc(OC)c(O)c(OC)c3)[C@H]3C(=O)OC[C@@H]32)cc1` [Example 33, 6,7-O-demethylene-6,7-O-dimethyl-4'-O-demethyl-4β-[4"-(ethoxycarbonyl)anilino]-4-desoxypodophyllotoxin]?
Answer: IC50 [1, 3]: 100 µM; IC50 (KB cells; [4]): < 0.4 µM

Question: Which results are given for `COc1cc(C2c3cc4c(cc3C(Nc3cccc(O)c3)C3COC(=O)C23)OCO4)cc(O)c1O` (stereo not drawn) [Example 19, 3',4'-O-Didemethyl-4β-(3"-hydroxyanilino)-4-desoxypodophyllotoxin]?
Answer: IC50 [1, 9]: 10 µM; IC50 (KB cells; [10]): 1.6 µM

Question: Which IC50 [1, 5] does the source give for `COc1cc([C@@H]2c3cc4c(cc3[C@@H](NC(=O)c3cccc([N+](=O)[O-])c3)[C@H]3COC(=O)[C@H]23)OCO4)cc(OC)c1O` [Example 41, 4'-O-Demethyl-4β-[(3"-nitrobenzoyl)amino]-4-desoxypodophyllotoxin] here?
Answer: 10 µM

Question: And the IC50 (KB cells; [6])?
Answer: 0.33 µM

Question: Which results are given for `COc1cc2c(cc1OC)[C@@H](Nc1ccc(F)cc1)[C@H]1COC(=O)[C@@H]1[C@@H]2c1cc(OC)c(O)c(OC)c1` [Example 31, 6,7-O-demethylene-6,7-O-dimethyl-4'-O-demethyl-4β-(4"-fluoroanilino)-4-desoxypodophyllotoxin]?
Answer: IC50 [1, 3]: 50 µM; IC50 (KB cells; [4]): 0.4 µM

Question: What does the source list for `COC1=CC([C@@H]2c3cc4c(cc3[C@@H](Nc3ccc([N+](=O)[O-])cc3)[C@H]3COC(=O)[C@@H]32)OCO4)=CC(=O)C1=O` [Example 44, 3',4'-Didemethoxy-3',4'-dioxo-4β-(4"-nitroanilino)-4-desoxypodophyllotoxin]?
Answer: IC50 [1, 2]: 10 µM; IC50 (KB cells; KB): 1.5 µM

Question: How did the IC50 [1, 5] turn out when `COc1cc([C@@H]2c3cc4c(cc3[C@@H](NC(=O)c3cccc(N)c3)[C@H]3COC(=O)[C@H]23)OCO4)cc(OC)c1O` [Example 42, 4'-O-Demethyl-4β-[(3"-aminobenzoyl)amino]-4-desoxypodophyllotoxin] was run?
Answer: 25 µM

Question: What about the IC50 (KB cells; [6]) of the same compound?
Answer: 0.42 µM

Question: What does the source list for `COc1cc(C2c3cc4c(cc3C(Nc3ccc(C#N)cc3)C3COC(=O)C23)OCO4)cc(O)c1O` (stereo not drawn) [Example 22, 3'.4'-O-Didemethyl-4β-(4"-cyanoanilino)-4-desoxypodophyllotoxin]?
Answer: IC50 [1, 9]: 10 µM; IC50 (KB cells; [10]): 1.5 µM

Question: Which results are given for `COc1cc(C2c3cc4c(cc3C(NCc3cccc(N)c3)C3COC(=O)C23)OCO4)cc(OC)c1O` (stereo not drawn) [Example 13, 4'-O-Demethyl-4β-(3"-aminobenzylamino)-4-desoxypodophyllotoxin]?
Answer: IC50 [1, 7]: 25 µM; IC50 (KB cells; [8]): < 0.4 µM

Question: Which results are given for `COc1cc(C2c3cc4c(cc3C(NCc3ccccc3)C3COC(=O)C23)OCO4)cc(OC)c1O` (stereo not drawn) [Example 3, 4'-O-Demethyl-4β-benzylamino-4-desoxypodophyllotoxin]?
Answer: IC50 [1, 7]: 25 µM; IC50 (KB cells; [8]): 2.2 µM

Question: How did the IC50 [1, 5] turn out when `COc1cc([C@@H]2c3cc4c(cc3[C@@H](NC(=O)c3ccccc3)[C@H]3COC(=O)[C@H]23)OCO4)cc(OC)c1O` [Example 34, 4'-O-Demethyl-4β-(benzoylamino)-4-desoxypodophyllotoxin] was run?
Answer: > 50 µM

Question: What about the IC50 (KB cells; [6]) of the same compound?
Answer: 0.64 µM

Question: `COc1cc(C2c3cc4c(cc3C(NCc3ccccc3F)C3COC(=O)C23)OCO4)cc(OC)c1O` (stereo not drawn) [Example 7, 4-O-Demethyl-4β-(2"-fluorobenzylamino)-4-desoxypodophyllotoxin] was tested. Which IC50 [1, 7] did it give?
Answer: 100 µM

Question: And the IC50 (KB cells; [8])?
Answer: 1.9 µM

Question: Which results are given for `COc1cc([C@@H]2c3cc4c(cc3[C@@H](NC(=O)c3ccccc3O)[C@H]3COC(=O)[C@H]23)OCO4)cc(OC)c1O` [Example 35, 4'-O-Demethyl-4β-[(2-hydroxylbenzoyl)amino]-4-desoxypodophyllotoxin]?
Answer: IC50 [1, 5]: 50 µM; IC50 (KB cells; [6]): < 1 µM

Question: With `COc1cc([C@@H]2c3cc4c(cc3[C@@H](NC(=O)c3ccc(F)cc3)[C@H]3COC(=O)[C@H]23)OCO4)cc(OC)c1O` [Example 36, 4'-O-Demethyl-4β-[(4"-fluorobenzoyl)amino]-4-desoxypodophyllotoxin] as the compound, how does the IC50 [1, 5] read?
Answer: 25 µM

Question: And the IC50 (KB cells; [6])?
Answer: 0.34 µM

Question: Which IC50 [1, 9] does the source give for `COc1cc(C2c3cc4c(cc3C(Nc3ccc5c(c3)OCCO5)C3COC(=O)C23)OCO4)cc(O)c1O` (centres unmarked) [Example 20] here?
Answer: 10 µM

Question: What about the IC50 (KB cells; [10]) of the same compound?
Answer: 2.3 µM

Question: `COc1cc([C@@H]2c3cc(O)c(O)cc3[C@@H](Nc3ccccc3)[C@H]3COC(=O)[C@H]23)cc(OC)c1O` [Example 26, 6,7-O-Demethylene-4'-O-demethyl-4β-anilino-4-desoxypophyllotoxin] was tested. Which IC50 [1, 3] did it give?
Answer: 25 µM

Question: And the IC50 (KB cells; KB)?
Answer: > 1 µM

Question: What does the source list for `COc1cc(C2c3cc4c(cc3C(Nc3ccccc3)C3COC(=O)C23)OCO4)cc(O)c1O` (stereo not drawn) [Example 17, 3',4'-O-Didemethyl-4β-anilino-4-desoxypodophyllotoxin]?
Answer: IC50 [1, 9]: 25 µM; IC50 (KB cells; [10]): 1.7 µM

— US5332811A, “Etopside analogs” (priority 1991, dated 1994)
